Laboratory results as given in patent publication US20220356147A1, “COMPOUNDS AND METHODS FOR POTENTIATING COLISTIN ACTIVITY” (University of Notre Dame du Lac, priority 2019, published 2022).
Read-outs that look alike come from different tables or passages of the source.

Experiments:
[1] = test system: A. baumannii 4106 (AB4106); experiment: Broth microdilution, colistin potentiation; format: cell-based
Protocol: (§1) Broth microdilution method for measurement of colistin potentiation: Bacteria were cultured for 4 to 6 hours in CAMHB and diluted to 1.04×10^6 CFU/mL for AB 4106 and 1.96×10^6 CFU/mL for KP B9 in fresh CAMHB. To aliquots (4 mL) was added compound from stock solutions in DMSO. One aliquot was not dosed to allow measurement of the colistin MIC in the absence of compound. A 1 mL aliquot of each sample was dosed with colistin, and from this 200 μL was dispensed into the first row of a 96-well microtiter plate in which all but the final row of subsequent wells was prefilled with 100 μL of the corresponding compound dosed bacterial suspension The final row was filled with media to act as a sterility control and blank. Row one wells were mixed 6-7 times, then, 100 μL was withdrawn and transferred to row two. Row two wells were mixed 6-7 times followed by a 100 μL transfer from row two to row three. This procedure was used to serially dilute the rest of the rows of the microtiter plate, excluding the last prefilled row, which was used to measure growth in the presence of compound alone. Plates were then sealed with GLAD
(§2) Press'n Seal and incubated under stationary conditions at 37° C. […] MIC values were determined as the minimum concentration required to achieve 90% growth inhibition compared to growth in untreated wells.

[2] = test system: AB 4106; experiment: Broth microdilution, standalone MIC of compound; format: cell-based, A. baumannii; settings: Acinetobacter baumannii, 16 h, read-out: MIC of compound alone, AB 4106
Protocol: Broth microdilution method for the determination of minimum inhibitory concentrations: Bacteria were cultured for 4 to 6 hours in CAMHB and subcultured to 1.04×10^6 CFU/mL for AB 4106 and 1.96×10^6 CFU/mL for KP B9 in fresh CAMHB. To aliquots (1 mL) was added compound from stock solutions in DMSO, such that the compound concentration equaled the highest concentration tested. Samples were then dispensed (200 μL) into the first row of a 96-well microtiter plate in which all but the final row of subsequent wells were prefilled with 100 μL of the untreated bacterial subculture. The final row was filled with media to act as a sterility control and blank. Row one wells were mixed 6-7 times, then, 100 μL was withdrawn and transferred to row two. Row two wells were mixed 6-7 times followed by a 100 μL transfer from row two to row three. This procedure was used to serially dilute the rest of the rows of the microtiter plate, excluding the last prefilled row, which was used to measure growth in the absence of compound. Plates were then sealed with GLAD Press'n Seal and incubated under stationary conditions at 37 C. […] MIC values were determined as the minimum concentration required to achieve 90% growth inhibition compared to growth in untreated wells.

[3] = test system: AB4106 and KPB9; experiment: Initial screen for colistin resistance suppression, statements in words for both strains; format: cell-based, A. baumannii and K. pneumoniae; settings: compound at 5 μM
Protocol: as §1, §2

[4] = compound at 5 μM, colistin alone 2048 μg/mL

Colistin MIC fold reduction, AB 4106 [1, 4]	MIC ([2]; standalone, no colistin)	Colistin MIC fold reduction, AB 4106 ([1]; compound at 1 μM)	Colistin MIC fold reduction, AB 4106 ([1]; compound at 3 μM)	Compound	Colistin potentiation activity in words, compared to IMD-0354 [3]	Colistin potentiation activity in words, AB4106 ([1]; compound at 5 μM)	MIC [2]
≤ 16 fold	> 200 µM			O=C(Nc1cc(C(F)(F)F)cc(C(F)(F)F)c1)c1cccc(Cl)c1 [Compound 1]	abrogated activity		
	> 200 µM			O=C(Nc1cc(C(F)(F)F)cc(C(F)(F)F)c1)c1cc(O)cc(Cl)c1 [Compound 3, N-(3,5-bis(trifluoromethyl)phenyl)-3-chloro-5-hydroxybenzamide]	essentially equipotent activity to IMD-0354		
	> 200 µM			O=C(Nc1cc(C(F)(F)F)cc(C(F)(F)F)c1)c1cccc(O)c1 [Compound 7, N-(3,5-bis(trifluoromethyl)phenyl)-3-hydroxybenzamide]	devoid of activity		
256 fold	> 200 µM			COc1ccc(O)c(C(=O)Nc2cc(C(F)(F)F)cc(C(F)(F)F)c2)c1 [Compound 11]			
512 fold	> 200 µM	≤ 16 fold	256 fold	Cc1ccc(O)c(C(=O)Nc2cc(C(F)(F)F)cc(C(F)(F)F)c2)c1 [Compound 12]			
≤ 16 fold	> 200 µM			O=C(Nc1cc(C(F)(F)F)cc(C(F)(F)F)c1)c1cc(O)ccc1O [Compound 16, N-(3,5-bis(trifluoromethyl)phenyl)-2,5-dihydroxybenzamide]		essentially inactive	
1024 fold	> 200 µM	16 fold	512 fold	Cc1cc(C)cc(NC(=O)c2cc(Cl)ccc2O)c1 [Compound 20]			
32 fold	> 200 µM			Cc1ccc(NC(=O)c2cc(Cl)ccc2O)cc1C(F)(F)F [Compound 30]			
128 fold	> 200 µM			O=C(Nc1ccc(F)cc1Br)c1cc(Cl)ccc1O [Compound 33]			
≤ 16 fold	> 200 µM			O=C(Nc1c(F)cccc1Br)c1cc(Cl)ccc1O [Compound 34]			
32 fold	> 200 µM			O=C(Nc1ccc(F)c([N+](=O)[O-])c1)c1cc(Cl)ccc1O [Compound 35, 5-chloro-N-(4-fluoro-3-nitrophenyl)-2-hydroxybenzamide]		Neither compound displayed significant activity	
1024 fold	> 200 µM	≤ 16 fold	256 fold	O=C(Nc1cccc(Cl)c1)c1cc(Cl)ccc1O [Compound 40]			
128 fold	> 200 µM			O=C(Nc1cc(Cl)c(Br)c(Cl)c1)c1cc(Cl)ccc1O [Compound 41, N-(4-bromo-3,5-dichlorophenyl)-5-chloro-2-hydroxybenzamide]			
256 fold	200 µM			O=C(Nc1cc(F)cc(F)c1)c1cc(F)ccc1O [Compound 42]			
1024 fold	> 200 µM	128 fold	512 fold	O=C(Nc1cc(Cl)cc(Cl)c1)c1cc(F)ccc1O [Compound 43]			
≤ 16 fold	> 200 µM			Cc1cc(C)cc(NC(=O)c2cc(F)ccc2O)c1 [Compound 44, N-(3,5-dimethylphenyl)-5-fluoro-2-hydroxybenzamide]			

Colistin MIC fold reduction, AB 4106 [1, 4]	MIC ([2]; standalone, no colistin)	Colistin MIC fold reduction, AB 4106 ([1]; compound at 1 μM)	Colistin MIC fold reduction, AB 4106 ([1]; compound at 3 μM)	Compound	Colistin potentiation activity in words, compared to IMD-0354 [3]	Colistin potentiation activity in words, AB4106 ([1]; compound at 5 μM)	MIC [2]
1024 fold	> 200 µM	256 fold	512 fold	O=C(Nc1cc(F)cc(F)c1)c1cc(Br)ccc1O [Compound 45]			
512 fold	> 200 µM	32 fold	256 fold	O=C(Nc1cc(Cl)cc(Cl)c1)c1cc(Br)ccc1O [Compound 46]			
1024 fold	> 200 µM	256 fold	1024 fold	O=C(Nc1cc(Br)cc(Br)c1)c1cc(Br)ccc1O [Compound 47]			
128 fold	> 200 µM			Cc1cc(C)cc(NC(=O)c2cc(Br)ccc2O)c1 [Compound 48]			
2048 fold	200 µM	256 fold	1024 fold	O=C(Nc1cc(C(F)(F)F)ccc1C(F)(F)F)c1cc(Br)ccc1O [Compound 49]			
512 fold	> 200 µM	64 fold	256 fold	O=C(Nc1cc(F)cc(F)c1)c1cc(I)ccc1O [Compound 50]			
256 fold	> 200 µM			Cc1cc(C)cc(NC(=O)c2cc(I)ccc2O)c1 [Compound 53]			
1024 fold	200 µM	64 fold	512 fold	O=C(Nc1cc(F)cc(F)c1)c1ccc(C(F)(F)F)cc1O [Compound 54, N-(3,5-difluorophenyl)-2-hydroxy-4-(trifluoromethyl)benzamide]			
2048 fold	> 200 µM	256 fold	1024 fold	O=C(Nc1cc(Cl)cc(Cl)c1)c1ccc(C(F)(F)F)cc1O [Compound 55, N-(3,5-dichlorophenyl)-2-hydroxy-4-(trifluoromethyl)benzamide]			
2048 fold	> 200 µM	256 fold	1024 fold	O=C(Nc1cc(Br)cc(Br)c1)c1ccc(C(F)(F)F)cc1O [Compound 56]			
256 fold	> 200 µM			Cc1cc(C)cc(NC(=O)c2ccc(C(F)(F)F)cc2O)c1 [Compound 57, N-(3,5-dimethylphenyl)-2-hydroxy-4-(trifluoromethyl)benzamide]			
≤ 16 fold	> 200 µM			Cc1cc(C)cc(NC(=O)c2cccc(Cl)c2O)c1 [Compound 58, 3-chloro-N-(3,5-dimethylphenyl)-2-hydroxybenzamide]			
≤ 16 fold	> 200 µM			Cc1cc(C)cc(NC(=O)c2cc(Cl)cc(Cl)c2O)c1 [Compound 59, 3,5-dichloro-N-(3,5-dimethylphenyl)-2-hydroxybenzamide]			
2048 fold	50 µM	128 fold	512 fold	O=C(Nc1cc(Br)cc(Br)c1)c1cc(Cl)cc(Cl)c1O [Compound 60, 3,5-dichloro-N-(3,5-dibromophenyl)-2-hydroxybenzamide]			
512 fold	100 µM	32 fold	256 fold	O=C(Nc1cc(Cl)cc(Cl)c1)c1cc(Cl)cc(Cl)c1O [Compound 62]			

Compound	Colistin MIC fold reduction, AB 4106 [1, 4]	MIC ([2]; standalone, no colistin)	Colistin MIC fold reduction, AB 4106 ([1]; compound at 1 μM)	Colistin MIC fold reduction, AB 4106 ([1]; compound at 3 μM)	Colistin potentiation activity in words, compared to IMD-0354 [3]	Colistin potentiation activity in words, AB4106 ([1]; compound at 5 μM)	MIC [2]
O=C(Nc1ccc(Br)cc1)c1cc(Cl)ccc1O [Compound 37]	2048 fold		128 fold	1024 fold			> 200 µM
